Experimental findings from patent EP4167996B1, “METAMIZOLE DERIVATIVES FOR THE PREVENTION AND TREATMENT OF PULMONARY HYPERTENSION” (Preißner, Robert, priority 2020, dated 2021) are described below.

This assay has as its system isoliert-perfundierte Mauslungen. The assay can be described thus: Hypoxic pulmonary vasoconstriction in the isolated perfused mouse lung (IPL). Further details: species or system C57BU6J Mäuse. To be noted: control ΔPAP ca. 4 cmH2O, P<0,005. The method, then:
Hypoxisch pulmonale Vasokonstriktion an der isoliert-perfundierten Mauslunqe (IPL)
Für die IPL wurden 10-12 Wochen alte C57BU6J Mäuse verwendet. Zu Beginn wurden die Mäuse anästhesiert (Ketamin 100mg/kg Körpergewicht (KG); Xylazin 20mg/kg KG) und mittels zervikaler Dislokation getötet. Im Anschluss wurde eine Tracheotomie durchgeführt und die Lunge in situ positiv mit normoxischem (20% O2; 5% CO2; 75% N2) Gas ventiliert (Tidalvolumen: 100 µl; Atemzüge pro Minute: Körpergewicht x 10). Anschließend wurde der Bauchraum eröffnet, das Diaphragma durchtrennt und Heparin (100 U) in den rechten Ventrikel injiziert. Nach der Eröffnung des Thorax mittels Sternotomie wurde sowohl die Pulmonalarterie als auch der linke Ventrikel kanüliert und die Lunge mit auf 37°C temperierter, gepufferter Salzlösung nach Hanks, angereichert mit Ca^2+, Mg^2+ und 10% FBS, perfundiert. Je nach Versuchsgruppe wurde das Perfusat zusätzlich mit einer Gewichts-entsprechenden Menge an Metamizol, 4-Aminoantipyrin oder 4-Methylamioantipyrin versetzt. Sobald sich der pulmonalarterielle Druck (PAP) stabilisiert hatte, wurden die Basalwerte aufgezeichnet und anschließend die Mauslunge mit hypoxischem Gas (1% O2; 5% CO2; 94% N2) ventiliert. Veränderungen des PAP wurden mithilfe eines Drucksensors P75 (Havartus apparatus) detektiert, und geben das Ausmaß der hypoxischen Vasokonstriktion der Lunge wieder.

Take `CNc1c(C)n(C)n(-c2ccccc2)c1=O` [4-Methylaminoantipyrin]: the “Reduktion des ΔPAP in Abhängigkeit der Konzentration” value (50-200 mg/kg KG in perfusate, hypoxic gas (1% O2; 5% CO2; 94% N2), Fig. 2) is “Dosis-abhängigen Reduktion des ΔPAP”. The inhibition at 200 mg/kg (Mus musculus, 200 mg/kg KG in perfusate, ventilation switched from normoxic to hypoxic gas (1% O2; 5% CO2; 94% N2), Fig. 1, read-out: Reduktion des ΔPAP nach Umschalten auf Hypoxie) worked out at 70%.
